Results on 5 compounds are retold here after US20040121947A1, “Compounds which inhibit beta-secretase activity and methods of use thereof” (Oklahoma Medical Research Foundation, priority 2000, published 2004).

Several values for one entry are separate records, joined by “and”; a condition that tells them apart may be missing. Equal entries are not always repeated. Where two headings read alike, the source gives them in different places. *1 amine or outer side, *2 acyl side, *3 side chain or, on linkers, in order; H or OH if unused. Where a SMILES comes first, the peptide text is derived from it. [ ]: non-standard residue; d: D form. LeuΨ(S-CHOHCH2)Ala = CC(C)C[C@H](N[*:1])[C@@H](O)C[C@@H](C)C(=O)[*:2]

For series [1], the system named is plasma Aβ40. The series can be described thus: Inhibition of Aβ production in transgenic mice (plasma Aβ40 ELISA). The class given is in vivo, tg2576 mice. The following applies: for Effect on plasma Aβ40: i.p. injection, 2 hours following injection. As to the method:
Six-month-old tg2576 mice (n=21) were injected intraperitoneally (i.p.) 200 μg of conjugate CPI-3 or with control DMSO, in 200 μl of PBS. Plasma were collected from anesthetized animals by orbital bleed or sephaneous vein into heparinized capillary tubes and clarified by centrifugation. Plasma Aβ 1-40 levels were determined by capture ELISA (BioSource International, Camarillo, Calif.). The peptide analogue of CPI-3, with an amide group instead of the hydroxyethylene isostere was synthesized by SynPep (Camarillo, Calif.).
Since the conjugate inhibitors can cross the blood brain barrier in vivo, enter cells both in vitro and in vivo, and inhibit Aβ production in vitro, inhibition of Aβ production in vivo was determined. Tg2576 mice, expressing the Swedish mutation of the human amyloid precursor protein (including SEQ ID NO: 11) (Hsiao, K., et al., Science 274:99-102 (1996), the teachings of which are incorporated hereby in their entirety) were injected with CPI-3, which is identical in amino acid sequence to CPI-2 and lacks the amino-terminal fluorescein (FAM) derivative. Blood was collected from tg2576 animals at time intervals following injection of 400 μg of CPI-3.
At ages up to 9 months, plasma Aβ in the tg2576 mice serves as a reliable marker for brain Aβ production as a result of memapsin 2 activity (Kawarabayashi, T., et al., J Neurosci. 21:372-381 (2001)). Nine tg2576 mice were injected intraperitoneally with various doses of inhibitor CPI-3.
A general note: An ELISA detects its analyte on a solid surface through an enzyme-linked reagent.

The subject of series [2] is plasma Aβ40. Kind of series: Inhibition of Aβ production in transgenic mouse model of Alzheimer's disease (plasma Aβ40 ELISA). The class given is in vivo, APP/F mice. The following applies: for Sustainment of inhibition of plasma Aβ40: over a 24-h period; for Blood brain barrier penetration (from reduction of plasma Aβ): transgenic mice. As for the experimental part:
Compounds MMI-138, MMI-165, and MMI-185 were synthesized as described above. Compounds were dissolved in 1 ml of dimethyl sulfoxide (DMSO) to a final concentration of about 1 mg/ml for MMI-165 and MMI-185, and about 10 mg/ml for MMI-138. […] Inhibitors were diluted into PBS or H2O immediately prior to injection, as described below. Inhibition constants were determined by methods described by Ermolieff, et al. (Biochem. 39:12450-12456 (2000), the teachings of which are incorporated hereby in their entirety).
The tg2576 strain of mice was obtained from Taconic (Germantown, N.Y.). The APP/F strain of mice were obtained by mating the tg2576 mice with the FVB/N strain. To determine presence of the Swedish APP gene in APP/F mice, the DNA from mice was isolated according to the Qiagen Dneasy™ Tissue Kit. PCR (Qiagen kit and protocol) was used to amplify the fragment of DNA corresponding to the human Swedish APP gene. The following primers were used: […]
At the age of three months, animals of the Alzheimer's disease mouse model APP/F were injected intraperitoneally (i.p.) with about 163 nanomoles of either compounds MMI-138 (molecular weight 674 g/mole; 110 μg per animal, n=2), MMI-165 (molecular weight 626 g/mole; 102 μg per animal, n=2), or MMI-185 (molecular weight 686; 112 μg per animal, n=2).
Heparinized capillary tubes collected blood samples from anesthetized animals from either the retro-orbital sinus or from the saphenous vein at specified intervals following injection. The blood samples were transferred to sterile 1.5 mL microcentrifuge tubes, centrifuged at 5,100 RPM for 10 minutes to recover the plasma (supernatant), and stored at −70° C. until analysis for the Aβ40 by Enzyme Linked-Immuno-Sorbent Assay (ELISA).
A sandwich ELISA (BioSource International, Camarillo, Calif.) was used to determine the levels of Aβ40 in plasma samples. The ELISA utilizes a primary antibody specific for human Aβ for the immobilization of the amino-terminus and a detection antibody specific for the carboxy-terminal amino acids of Aβ40. A conjugated secondary antibody was used to detect the ternary complex, using a stabilized chromogen substrate, quantifiable following addition of 1 M HCl, with the optical densities measured at 450 nm. The procedures were followed according to the BioSource protocol. Optical densities were converted to pg/ml quantities of Aβ40 using a linear regression of the optical densities of standards obtained from the commercial kit, to their known concentrations.

A further series addresses T1, memapsin 1 (Homo sapiens, UniProt Q9Y5Z0).
T1 construct: pET-11 vector-derived residues 1-14 of promemapsin 1-T1 (N, cleaved yes); made in house; host or cells: E. coli
T1 sequence (Q9Y5Z0 63-466 limits assumed): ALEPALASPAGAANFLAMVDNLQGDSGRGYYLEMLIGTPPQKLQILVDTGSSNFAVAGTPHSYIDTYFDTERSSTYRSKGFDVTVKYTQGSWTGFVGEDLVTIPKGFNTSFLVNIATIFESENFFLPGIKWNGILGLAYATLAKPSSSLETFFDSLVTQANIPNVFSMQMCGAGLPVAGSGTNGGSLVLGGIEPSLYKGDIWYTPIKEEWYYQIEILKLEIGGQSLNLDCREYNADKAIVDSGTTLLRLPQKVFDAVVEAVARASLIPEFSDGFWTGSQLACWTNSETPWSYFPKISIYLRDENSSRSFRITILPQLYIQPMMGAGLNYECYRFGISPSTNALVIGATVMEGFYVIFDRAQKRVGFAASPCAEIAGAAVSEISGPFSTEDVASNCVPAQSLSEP
The series can be described thus: Inhibition of memapsin 1 proteolytic activity, fluorogenic substrate FS-2. The series is classed as biochemical. The following applies: for % Inhibition Mep1: enzyme concentration equals the compound concentration. As to the method: Vi/Vo depicts the ratio of initial cleavage velocities of the substrate FS-2 (Ermolieff, et al., Biochemistry […]:12450-12456 (2000)) by memapsin 1 or memapsin 2 in the absence (Vo) or presence (Vi) of a compound of the invention. […] The Vi/Vo values depicted in Table 1 were determined at conditions under which the enzyme and inhibitor concentrations were equal (e.g., about 80 nM, 100 nM).
The relationship of Ki (independent of substrate concentration) to Kiapp is a function of substrate concentration in the assay and the Km for cleavage of the substrate by either memapsin 1 or memapsin 2 by the relationship:
An aliquot of the inhibitor of known concentration in DMSO was diluted into 1.8 ml 0.1 M NaOAc, pH 4.0. DMSO and added to a final concentration of 10% (v/v), and memapsin 2 (final concentration of 80 nM), followed by a 20 minute equilibration at 37° C. Compounds were evaluated for the ability to inhibit memapsin 1 and memapsin 2 at concentrations between about 10 nM and about 10 μm of inhibitor.
The relationship of Ki (independent of substrate concentration) to Kiapp is a function of substrate concentration in the assay and the Km for cleavage of the substrate by either memapsin 1 or memapsin 2 by the relationship: […]

The next series addresses T2, memapsin 2 (Homo sapiens, UniProt P56817).
T2 construct: pET-11 vector-derived residues 1-15 of promemapsin 2-T1 (N, cleaved yes); made in house; host or cells: E. coli
The series can be described thus: Inhibition of memapsin 2 proteolytic activity, fluorogenic substrate FS-2. The class given is biochemical. As to conditions: for % Inhibition Mep2: enzyme concentration equals the compound concentration; for Selectivity: Ki for memapsin 2 lower than Ki for memapsin 1: memapsin 2 relative to memapsin 1; for % Inh (M1/M2): ratio of % inhibition memapsin 1 / memapsin 2, 1 or less = greater inhibition of memapsin 2. The method in brief:
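Inhibitors tested at about 10 nM to 10 μM in pH 4.0 0.1 M sodium acetate containing 10% (v/v) DMSO, after 20 min preincubation at 37 °C with 80 nM self-activated memapsin 2. Substrate-independent Ki derived from apparent Ki via Km and substrate level.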

The mark [3] stands for this setting: four injections at 2 hour intervals.
[4] abbreviates: within 30 minutes following i.p. injection of about 163 nanomoles.
Where [5] appears, read: Table 9, read-out: Ki apparent Mep2.
[6] abbreviates: memapsin 2, apparent Ki in presence of substrate FS-2, read-out: Ki app.
The mark [7] stands for this setting: memapsin 2, independent of substrate, converted from Ki apparent, read-out: Ki.

T2 sequence (P56817 41-454 limits assumed): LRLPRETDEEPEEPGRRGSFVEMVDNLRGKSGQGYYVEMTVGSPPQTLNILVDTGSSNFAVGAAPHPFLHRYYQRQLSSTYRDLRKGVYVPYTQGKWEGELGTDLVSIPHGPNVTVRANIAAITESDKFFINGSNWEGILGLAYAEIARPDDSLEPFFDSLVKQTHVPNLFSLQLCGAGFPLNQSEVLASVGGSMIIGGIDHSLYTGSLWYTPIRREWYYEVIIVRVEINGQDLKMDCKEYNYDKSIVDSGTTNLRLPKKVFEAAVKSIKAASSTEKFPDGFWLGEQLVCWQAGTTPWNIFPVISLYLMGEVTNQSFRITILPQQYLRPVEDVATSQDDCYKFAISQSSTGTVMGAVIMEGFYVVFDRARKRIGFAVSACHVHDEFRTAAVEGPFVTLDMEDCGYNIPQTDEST

For the compound `CC(C)C[C@H](NC(=O)[C@@H](N)CCC(=O)O)C(=O)N[C@@H](CC(=O)O)C(=O)N[C@@H](CC(C)C)[C@@H](O)C[C@@H](C)C(=O)N[C@H](C(=O)N[C@@H](CCC(=O)O)C(=O)N[C@@H](Cc1ccccc1)C(=O)NCC(=O)NCC(=O)N[C@H](CCCNC(=N)N)C(=O)N[C@H](CCCNC(=N)N)C(=O)N[C@H](CCCNC(=N)N)C(=O)N[C@H](CCCNC(=N)N)C(=O)N[C@H](CCCNC(=N)N)C(=O)N[C@H](CCCNC(=N)N)C(=O)N[C@H](CCCNC(=N)N)C(=O)N[C@H](CCCNC(=N)N)C(=O)N[C@H](CCCNC(=N)N)C(=O)O)C(C)C` [CPI-3] (H-ELD[LeuΨ(S-CHOHCH2)Ala]VEFGG[dR][dR][dR][dR][dR][dR][dR][dR][dR]-OH), in the series with plasma Aβ40 [1] (2 hours following i.p. injection), the “Plasma Aβ40 level relative to initial value” is “about one third”. Also, in the series with plasma Aβ40 [1] (setting [3]), the “Aβ level, average low, % of the average initial value” was 29% and the “Inhibition of plasma Aβ” value is “about 80%”. Besides, the “Effect on plasma Aβ40” value with plasma Aβ40 [1] is on record as “significant dose-dependent reduction”. Besides, in the series on plasma Aβ40 [1] (single i.p. injection), the “Half-life of inhibition of plasma Aβ40” value worked out at 3 h and the “Time of return of plasma Aβ40 level to the initial value” was no more than 8 h.
Turning to `CSCC[C@H](NC(=O)OCn1nc(C)cc1C)C(=O)N[C@@H](CC(C)C)[C@@H](O)C[C@@H](C)C(=O)N[C@H](C(=O)NCc1ccccc1)C(C)C` [MMI-138], the “Sustainment of inhibition of plasma Aβ40” value with plasma Aβ40 [2] is reported as “remained nearly constant”. For the same compound, in the series on plasma Aβ40 [2], the “Blood brain barrier penetration (from reduction of plasma Aβ)” value was “penetrated the blood brain barrier”. Further, the “Decrease in plasma Aβ40” value in the series on plasma Aβ40 [2] (setting [4]) came out at 57%. Also, the “% Inhibition Mep1” value at memapsin 1 is on record as 7%. For the same compound, the Ki is 811 nM on memapsin 1 (read-out: Ki for memapsin 1); 14.2 nM at memapsin 2 (setting [5]); 14.2 nM on memapsin 2 (setting [6]); 14.2 nM and 8.8 nM at memapsin 2 (memapsin 2, read-out: Ki). Moreover, on memapsin 2, the “% Inhibition Mep2” value was 72%. Moreover, the “Selectivity: Ki for memapsin 2 lower than Ki for memapsin 1” value on memapsin 2 and at memapsin 2 (listed as 138) was “about 60 fold” in each case. At memapsin 2, the “% Inh (M1/M2)” value was 0.10.
In the case of `CSCC[C@H](NC(=O)OCn1nc(C)cc1C)C(=O)N[C@@H](CC(C)C)[C@@H](O)C[C@@H](C)C(=O)N[C@H](C(=O)NC(C)C)C(C)C` [MMI-165], the “Sustainment of inhibition of plasma Aβ40” value in the series with plasma Aβ40 [2] is recorded as “remained nearly constant”. For the same compound, the “Blood brain barrier penetration (from reduction of plasma Aβ)” value in the series with plasma Aβ40 [2] is given as “penetrated the blood brain barrier”. The “Decrease in plasma Aβ40” value in the series on plasma Aβ40 [2] (setting [4]) was found to be 46%. For the same compound, at memapsin 1, the “% Inhibition Mep1” value is given as 27%. For the same compound, the Ki at memapsin 2 (setting [5]) is 24.5 nM; at memapsin 2 (setting [6]), 24.5 nM; at memapsin 2 (setting [7]), 15.3 nM; at memapsin 2 (memapsin 2, read-out: Ki) it was 15.3 nM. Moreover, the “% Inhibition Mep2” value on memapsin 2 turned out to be 60%. In addition, the “% Inh (M1/M2)” value on memapsin 2 was 0.45. In addition, on memapsin 2 (ratio of initial cleavage velocities of FS-2 with/without compound, enzyme and inhibitor concentrations equal (e.g., about 80 nM, 100 nM)), the Vi/Vo is listed as 0.4.
Take `COCC[C@H](NC(=O)[C@H](CC(C)C)NC(=O)OC(C)(C)C)C(=O)N[C@@H](CC(C)C)[C@@H](O)C[C@@H](C)C(=O)N[C@@H](CC(C)C)C(=O)NC(C)C` [MMI-185]: the “Sustainment of inhibition of plasma Aβ40” value in the series with plasma Aβ40 [2] is “appeared to return to initial level”. Further, the “Blood brain barrier penetration (from reduction of plasma Aβ)” value in the series with plasma Aβ40 [2] is “penetrated the blood brain barrier”. Also, in the series with plasma Aβ40 [2] (setting [4]), the “Decrease in plasma Aβ40” value was determined as 63%. The Ki at memapsin 2 (setting [6]) worked out at 7.23 nM; at memapsin 2 (setting [7]) it was 4.52 nM; on memapsin 2 (memapsin 2, read-out: Ki) it was 4.5 nM.
`CC(C)C[C@H](NC(=O)[C@@H](N)CCC(=O)O)C(=O)N[C@@H](CC(=O)O)C(=O)N[C@@H](CC(C)C)[C@@H](O)C[C@@H](C)C(=O)N[C@H](C(=O)N[C@@H](CCC(=O)O)C(=O)N[C@@H](Cc1ccccc1)C(=O)O)C(C)C` [OM00-3, ELDL*AVEF] (H-ELD[LeuΨ(S-CHOHCH2)Ala]VEF-OH): the “Decrease in plasma Aβ40” value in the series with plasma Aβ40 [2] (2 hours following injection of 163 nmoles) is 16%. Further, the “Inhibition of Aβ40 production in vivo” value in the series with plasma Aβ40 [2] (plasma Aβ40) is reported as “failed to inhibit Aβ40 production”. In the series on plasma Aβ40 [1], the “Effect on plasma Aβ40” value is “did not reduce plasma Aβ40 levels”.
